Patent US9199999B2, “Substituted imidazopyrazines” (Bayer Intellectual Property GmbH, priority 2010, dated 2015)

Target: human kinase Mps-1 (Homo sapiens (Human), UniProt P33981)
Details: read-out: Mps-1 IC50; N-terminally GST-tagged human full length recombinant Mps-1; 10 μM ATP; 1 μM biotinylated peptide substrate; 60 min at 22° C.

Sequence of human kinase Mps-1 (P33981 whole entry): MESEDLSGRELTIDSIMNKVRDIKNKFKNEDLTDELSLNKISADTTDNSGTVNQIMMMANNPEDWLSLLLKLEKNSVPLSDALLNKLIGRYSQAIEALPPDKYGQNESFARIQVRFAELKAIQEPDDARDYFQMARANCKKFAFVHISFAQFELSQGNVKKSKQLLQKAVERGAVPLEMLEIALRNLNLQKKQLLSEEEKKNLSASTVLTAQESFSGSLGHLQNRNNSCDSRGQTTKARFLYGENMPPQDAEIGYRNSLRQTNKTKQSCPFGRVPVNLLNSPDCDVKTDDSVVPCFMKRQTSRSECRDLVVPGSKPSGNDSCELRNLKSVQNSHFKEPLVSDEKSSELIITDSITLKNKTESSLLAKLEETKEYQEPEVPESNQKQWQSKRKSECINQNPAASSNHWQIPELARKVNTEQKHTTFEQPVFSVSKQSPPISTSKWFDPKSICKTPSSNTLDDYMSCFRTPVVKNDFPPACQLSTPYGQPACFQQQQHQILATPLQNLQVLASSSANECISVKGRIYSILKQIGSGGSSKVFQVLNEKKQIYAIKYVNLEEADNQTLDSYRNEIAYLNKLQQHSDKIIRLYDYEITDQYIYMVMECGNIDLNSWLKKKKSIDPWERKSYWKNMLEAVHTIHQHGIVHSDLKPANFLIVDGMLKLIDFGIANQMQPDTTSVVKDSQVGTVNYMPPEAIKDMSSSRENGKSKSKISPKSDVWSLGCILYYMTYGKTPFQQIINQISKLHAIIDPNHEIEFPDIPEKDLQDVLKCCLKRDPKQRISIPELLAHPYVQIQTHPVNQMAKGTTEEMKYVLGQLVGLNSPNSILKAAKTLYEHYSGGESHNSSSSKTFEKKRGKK

Row | IC50 [nM] | Structure (SMILES)
1 | 155 | C#Cc1cn2c(-c3ccc(C(=O)NC4(C)CC4)c(C)c3)cnc2c(NCCC(F)(F)F)n1 [Example 66, 4-{6-ethynyl-8-[(3,3,3-trifluoropropyl)amino]imidazo[1,2-a]pyrazin-3-yl}-2-methyl-N-(1-methylcyclopropyl)benzamide]
2 | 10 | O=C(NC1CC1)c1ccc(-c2cnc3c(NCCCCO)nc(C#CC4(O)CCCC4)cn23)cc1 [Example 9, N-cyclopropyl-4-{8-[(4-hydroxybutyl)amino]-6-[(1-hydroxycyclopentyl)ethynyl]imidazo[1,2-a]pyrazin-3-yl}benzamide]
3 | 130 | Cc1cc(-c2cnc3c(NCCC(F)(F)F)nc(C#CCO)cn23)ccc1C(=O)NCC(F)F [Example 72, N-(2,2-difluoroethyl)-4-{6-(3-hydroxyprop-1-yn-1-yl)-8-[(3,3,3-trifluoropropyl)amino]imidazo[1,2-a]pyrazin-3-yl}-2-methylbenzamide]
4 | 22 | CC(C)(O)C#Cc1cn2c(-c3ccc(C(=O)NC4CC4)cc3)cnc2c(NCCCCO)n1 [Example 8, N-cyclopropyl-4-{8-[(4-hydroxybutyl)amino]-6-(3-hydroxy-3-methylbut-1-yn-1-yl)imidazo[1,2-a]pyrazin-3-yl}benzamide]
5 | 31 | O=C(NC1CC1)c1ccc(-c2cnc3c(NCCCO)nc(C#CCO)cn23)cc1 [Example 1, N-cyclopropyl-4-{8-[(3-hydroxypropyl)amino]-6-(3-hydroxyprop-1-yn-1-yl)imidazo[1,2-a]pyrazin-3-yl}benzamide]
6 | 215 | C#Cc1cn2c(-c3ccc(C(=O)NCC(F)F)c(C)c3)cnc2c(NCCC(F)(F)F)n1 [Example 65, N-(2,2-difluoroethyl)-4-{6-ethynyl-8-[(3,3,3-trifluoropropyl)amino]imidazo[1,2-a]pyrazin-3-yl}-2-methylbenzamide]
7 | 1840 | CC(C)CNc1nc(C#CCO)cn2c(-c3ccc(S(=O)(=O)NC4CC4)cc3)cnc12 [Example 4, N-cyclopropyl-4-[6-(3-hydroxyprop-1-yn-1-yl)-8-(isobutylamino)imidazo[1,2-a]pyrazin-3-yl]benzenesulfonamide]
8 | 165 | C#Cc1cn2c(-c3ccc(C(=O)NC4(C#N)CC4)c(C)c3)cnc2c(NCCC(F)(F)F)n1 [Example 67, N-(1-cyanocyclopropyl)-4-{6-ethynyl-8-[(3,3,3-trifluoropropyl)amino]imidazo[1,2-a]pyrazin-3-yl}-2-methylbenzamide]
9 | 6.8 | O=S1(=O)CCN(CC#Cc2cn3c(-c4ccc(-c5cnc(C6CC6)[nH]5)cc4)cnc3c(NCCC(F)(F)F)n2)CC1 [Example 61, 3-[4-(2-cyclopropyl-1H-imidazol-5-yl)phenyl]-6-[3-(1,1-dioxidothiomorpholin-4-yl)prop-1-yn-1-yl]-N-(3,3,3-trifluoropropyl)imidazo[1,2-a]pyrazin-8-amine]
10 | 53 | OCC#Cc1cn2c(-c3ccc(-c4cnc(C5CC5)[nH]4)cc3)cnc2c(NCCCO)n1 [Example 59, 3-{3-[4-(2-Cyclopropyl-1H-imidazol-5-yl)phenyl]-8-[(3-hydroxypropyl)amino]imidazo[1,2-a]pyrazin-6-yl}prop-2-yn-1-ol]
11 | 14 | Cc1cc(-c2cnc3c(NCC(C)C)nc(C#CCO)cn23)ccc1C(=O)NC1CC1 [Example 49, N-cyclopropyl-4-{6-(3-hydroxyprop-1-yn-1-yl)-8-[(2-methylpropyl)amino]imidazo[1,2-a]pyrazin-3-yl}-2-methylbenzamide]
12 | 993 | COc1cc(C(=O)NC2CC2)ccc1-c1cnc2c(NCCCN)nc(C#CCO)cn12 [Example 11, 4-{8-[(3-Aminopropyl)amino]-6-(3-hydroxyprop-1-yn-1-yl)imidazo[1,2-a]pyrazin-3-yl}-N-cyclopropyl-3-methoxybenzamide]
13 | 13 | C=C(C)CNc1nc(C#CCO)cn2c(-c3ccc(-c4cnc(C5CC5)[nH]4)cc3)cnc12 [Example 52, 3-{3-[4-(2-Cyclopropyl-1H-imidazol-5-yl)phenyl]-8-[(2-methylprop-2-en-1-yl)amino]imidazo[1,2-a]pyrazin-6-yl}prop-2-yn-1-ol]
14 | 98 | Cc1cc(-c2cnc3c(NCCC(F)(F)F)nc(C#CCO)cn23)ccc1C(=O)NC1(C#N)CC1 [Example 74, N-(1-cyanocyclopropyl)-4-{6-(3-hydroxyprop-1-yn-1-yl)-8-[(3,3,3-trifluoropropyl)amino]imidazo[1,2-a]pyrazin-3-yl}-2-methylbenzamide]
15 | 130 | OCC#Cc1cn2c(-c3ccc(-c4cnc(C5CC5)[nH]4)cc3)cnc2c(NC[C@H](O)CO)n1 [Example 50, (2S)-3-({3-[4-(2-cyclopropyl-1H-imidazol-5-yl)phenyl]-6-(3-hydroxyprop-1-yn-1-yl)imidazo[1,2-a]pyrazin-8-yl}amino)propane-1,2-diol]
16 | 15 | OCC#Cc1cn2c(-c3ccc(-c4cnc(C5CC5)[nH]4)cc3)cnc2c(NCCCC(F)(F)F)n1 [Example 51, 3-{3-[4-(2-Cyclopropyl-1H-imidazol-5-yl)phenyl]-8-[(4,4,4-trifluorobutyl)amino]imidazo[1,2-a]pyrazin-6-yl}prop-2-yn-1-ol]

Row | IC50 [nM] | Structure (SMILES)
17 | 135 | C#Cc1cn2c(-c3ccc(C(=O)NC)c(C)c3)cnc2c(NCCC(F)(F)F)n1 [Example 63, 4-{6-Ethynyl-8-[(3,3,3-trifluoropropyl)amino]imidazo[1,2-a]pyrazin-3-yl}-N,2-dimethylbenzamide]
18 | 69 | CNC(=O)c1ccc(-c2cnc3c(NCCC(F)(F)F)nc(C#CCO)cn23)cc1C [Example 70, 4-{6-(3-Hydroxyprop-1-yn-1-yl)-8-[(3,3,3-trifluoropropyl)amino]imidazo[1,2-a]pyrazin-3-yl}-N,2-dimethylbenzamide]
19 | 305 | C#Cc1cn2c(-c3ccc(C(=O)NC4(OC)CC4)c(C)c3)cnc2c(NCCC(F)(F)F)n1 [Example 68, 4-{6-ethynyl-8-[(3,3,3-trifluoropropyl)amino]imidazo[1,2-a]pyrazin-3-yl}-N-(1-methoxycyclopropyl)-2-methylbenzamide]
20 | 520 | CC(C)CNc1nc(C#CCO)cn2c(-c3cccc(-c4cnc(C5CC5)[nH]4)c3)cnc12 [Example 55, 3-{3-[3-(2-Cyclopropyl-1H-imidazol-5-yl)phenyl]-8-(isobutylamino)imidazo[1,2-a]pyrazin-6-yl}prop-2-yn-1-ol]
21 | 310 | COC1(NC(=O)c2ccc(-c3cnc4c(NCCC(F)(F)F)nc(C#CCO)cn34)cc2C)CC1 [Example 75, 4-{6-(3-hydroxyprop-1-yn-1-yl)-8-[(3,3,3-trifluoropropyl)amino]imidazo[1,2-a]pyrazin-3-yl}-N-(1-methoxycyclopropyl)-2-methylbenzamide]
22 | 7.1 | OCC#Cc1cn2c(-c3ccc(-c4cnc(C5CC5)[nH]4)cc3)cnc2c(NCCC(F)(F)F)n1 [Example 57, 3-{3-[4-(2-Cyclopropyl-1H-imidazol-5-yl)phenyl]-8-[(3,3,3-trifluoropropyl)amino]imidazo[1,2-a]pyrazin-6-yl}prop-2-yn-1-ol]
23 | 4.2 | Cc1cc(-c2cnc3c(NCCC(F)(F)F)nc(C#CCN4CCS(=O)(=O)CC4)cn23)ccc1C(=O)NC1CC1 [Example 62, N-cyclopropyl-4-{6-[3-(1,1-dioxidothiomorpholin-4-yl)prop-1-yn-1-yl]-8-[(3,3,3-trifluoropropyl)amino]imidazo[1,2-a]pyrazin-3-yl}-2-methylbenzamide]
24 | 150 | CCNC(=O)c1ccc(-c2cnc3c(NCCC(F)(F)F)nc(C#CCO)cn23)cc1C [Example 71, N-ethyl-4-{6-(3-hydroxyprop-1-yn-1-yl)-8-[(3,3,3-trifluoropropyl)amino]imidazo[1,2-a]pyrazin-3-yl}-2-methylbenzamide]
25 | 20000 | CC(C)CNc1nc(C#Cc2ccccc2F)cn2c(-c3ccc(S(=O)(=O)NC4CC4)cc3)cnc12 [Example 3, N-cyclopropyl-4-{6-[(2-fluorophenyl)ethynyl]-8-(isobutylamino)imidazo[1,2-a]pyrazin-3-yl}benzenesulfonamide]
26 | 5.3 | OCC#Cc1cn2c(-c3ccc(-c4cnc(C5CC5)[nH]4)cc3)cnc2c(NCC2CCC2)n1 [Example 58, 3-{8-[(Cyclobutylmethyl)amino]-3-[4-(2-cyclopropyl-1H-imidazol-5-yl)phenyl]imidazo[1,2-a]pyrazin-6-yl}prop-2-yn-1-ol]
27 | 38 | CC(C)(O)CNc1nc(C#CCO)cn2c(-c3ccc(C(=O)NC4CC4)cc3)cnc12 [Example 10, N-cyclopropyl-4-{8-[(2-hydroxy-2-methylpropyl)amino]-6-(3-hydroxyprop-1-yn-1-yl)imidazo[1,2-a]pyrazin-3-yl}benzamide]
28 | 20000 | CC(C)CNc1nc(C#Cc2ccccc2)cn2c(-c3ccc(S(=O)(=O)NC4CC4)cc3)cnc12 [Example 2, N-cyclopropyl-4-[8-(isobutylamino)-6-(phenylethynyl)imidazo[1,2-a]pyrazin-3-yl]benzenesulfonamide]
29 | 23 | OCC#Cc1cn2c(-c3ccc(-c4cnc(C5CC5)[nH]4)cc3)cnc2c(NCCCCO)n1 [Example 56, 4-({3-[4-(2-Cyclopropyl-1H-imidazol-5-yl)phenyl]-6-(3-hydroxyprop-1-yn-1-yl)imidazo[1,2-a]pyrazin-8-yl}amino)butan-1-ol]
30 | 120 | C#Cc1cn2c(-c3ccc(C(=O)NCC)c(C)c3)cnc2c(NCCC(F)(F)F)n1 [Example 64, N-ethyl-4-{6-ethynyl-8-[(3,3,3-trifluoropropyl)amino]imidazo[1,2-a]pyrazin-3-yl}-2-methylbenzamide]
31 | 120 | Cc1cc(-c2cnc3c(NCCC(F)(F)F)nc(C#CCO)cn23)ccc1C(=O)NC1(C)CC1 [Example 73, 4-{6-(3-hydroxyprop-1-yn-1-yl)-8-[(3,3,3-trifluoropropyl)amino]imidazo[1,2-a]pyrazin-3-yl}-2-methyl-N-(1-methylcyclopropyl)benzamide]
32 | 18 | C=CCNc1nc(C#CCO)cn2c(-c3ccc(-c4cnc(C5CC5)[nH]4)cc3)cnc12 [Example 53, 3-{8-(Allylamino)-3-[4-(2-cyclopropyl-1H-imidazol-5-yl)phenyl]imidazo[1,2-a]pyrazin-6-yl}prop-2-yn-1-ol]
